Test results from US8980911B2, “Heterocyclic compounds as protein kinase inhibitors” (Daiichi Sankyo Company, Limited, priority 2011, dated 2015).

Legend:
Assay type in all cases: biochemical
JAK2 = target: T1, JAK2 (Homo sapiens, UniProt O60674); assay: In vitro enzyme assay (cell-free HTRF kinase assay), JAK2; conditions: catalytic domain, His-tag; ATP 10 μM, SRCtide 25 nM, reaction 30 min
T1 construct: All enzymes only contain the catalytic domain; His (N); purchased Carna Bioscience, Inc; host or cells: baculovirus expression system
T1 sequence (O60674 849-1124 limits assumed): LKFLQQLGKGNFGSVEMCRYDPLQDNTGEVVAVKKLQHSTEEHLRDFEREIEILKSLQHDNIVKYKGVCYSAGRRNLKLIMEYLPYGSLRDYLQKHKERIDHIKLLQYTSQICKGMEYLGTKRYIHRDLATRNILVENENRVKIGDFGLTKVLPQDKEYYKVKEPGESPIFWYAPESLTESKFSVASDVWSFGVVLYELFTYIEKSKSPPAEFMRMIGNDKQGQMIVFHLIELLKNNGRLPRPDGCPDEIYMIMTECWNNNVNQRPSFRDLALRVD
Procedure: (§1) Kinase buffer [50 mM HEPES (pH 7.5), 1 mM EGTA, 10 mM MgCl2, 2 mM DTT and 0.01% Tween-20) was prepared and dilutions of a compound of formula (I) and other reagents were subsequently made in it. Two times concentrated compound of formula (I) solution: A compound of formula (I) was diluted to 100-fold final concentration in DMSO, followed by 50-fold dilution with Kinase buffer (1% DMSO final concentration). Four times concentrated Substrate/ATP mix solution: Biotin-SRCtide and ATP were diluted to 4-fold final concentration in Kinase buffer. Biotin-SRCtide solution (purchased from Anaspec) was mixed with ATP solution (1:1). Four times concentrated Enzyme solution: JAK1 or JAK2 or JAK3 or TYK2 enzyme [Human baculo virus expressed JAK1, JAK2, JAK3 and TYK2 were purchased from Carna Bioscience, Inc. All enzymes only contain the catalytic domain. JAK1 (aa 850-1154) and TYK2 (aa 871-1187) are expressed with an N-terminally fused GST-tag, and JAK2 and JAK3 with an N-terminally fused His-tag] was diluted to 4-fold final concentration in Kinase buffer and always kept on ice. Detection buffer: LANCE detection buffer (10 times concentrated) was diluted 10-fold in H2O. Four times concentrated stop solution: EDTA was diluted to a concentration of 40 mM in detection buffer. Four times concentrated ULight/Eu-antibody (from Perkin Elmer) mix solution: ULight-Streptavidin was diluted to a concentration of 100 nM (25 ng/mL final concentrations) and Eu-anti-phospho-Tyrosine (PT66) (from Perkin Elmer) was diluted to a concentration of 8 nM (2 ng/mL final concentration) in detection buffer.
(§2) Cell-free in vitro kinase assay was performed in 384 well plates. Two times concentrated compound solution (5 μL) was pipetted into a HTS 384SV Small Volume Plate. Four times concentrated Substrate/ATP mix (2.5 μL) solution was added along with 4 times concentrated Enzyme solution (2.5 μL). Plate was covered with TopSeal-A and incubated at room temperature for indicated time (Table 3). Four times concentrated Stop solution (5 μL, 10 mM final concentration) was added and incubated for 5 minutes at room temperature. Four times concentrated ULight/Eu-antibody mix solution (5 μL) was added and again plate was covered with TopSeal and incubated overnight at 4° C. TopSeal was removed and HTRF signal was measured at 615 nm and […] (excitation at 320 or 340 nm) on Tecan M1000 Multi mode plate reader. Ratio (665 nm/615 nm)×10^4 was calculated and IC50 values were deduced from Graph-pad prism 4.2.

JAK1 = target: T2, JAK1 (Homo sapiens, UniProt P23458); assay: In vitro enzyme assay (cell-free HTRF kinase assay), JAK1; conditions: catalytic domain aa 850-1154, GST-tag; ATP 60 μM, SRCtide 400 nM, reaction 120 min
T2 construct: JAK1 (aa 850-1154) and TYK2 (aa 871-1187) are expressed with an N-terminally fused GST-tag; GST (N); purchased Carna Bioscience, Inc; host or cells: baculovirus expression system
T2 sequence (P23458 850-1154): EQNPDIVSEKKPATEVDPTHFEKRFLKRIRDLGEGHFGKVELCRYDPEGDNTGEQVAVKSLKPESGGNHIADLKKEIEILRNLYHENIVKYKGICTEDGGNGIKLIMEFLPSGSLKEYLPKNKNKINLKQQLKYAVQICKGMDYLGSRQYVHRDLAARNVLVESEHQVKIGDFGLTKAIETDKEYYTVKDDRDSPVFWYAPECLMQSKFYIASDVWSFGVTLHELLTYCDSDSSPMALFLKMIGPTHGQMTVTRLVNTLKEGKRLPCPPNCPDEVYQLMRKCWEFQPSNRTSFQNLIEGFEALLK
Procedure: as §1, §2

JAK3 = target: T3, JAK3 (Homo sapiens, UniProt P52333); assay: In vitro enzyme assay (cell-free HTRF kinase assay), JAK3; conditions: catalytic domain, His-tag; ATP 3 μM, SRCtide 100 nM, reaction 30 min
T3 construct: All enzymes only contain the catalytic domain; His (N); purchased Carna Bioscience, Inc; host or cells: baculovirus expression system
T3 sequence (P52333 822-1111 limits assumed): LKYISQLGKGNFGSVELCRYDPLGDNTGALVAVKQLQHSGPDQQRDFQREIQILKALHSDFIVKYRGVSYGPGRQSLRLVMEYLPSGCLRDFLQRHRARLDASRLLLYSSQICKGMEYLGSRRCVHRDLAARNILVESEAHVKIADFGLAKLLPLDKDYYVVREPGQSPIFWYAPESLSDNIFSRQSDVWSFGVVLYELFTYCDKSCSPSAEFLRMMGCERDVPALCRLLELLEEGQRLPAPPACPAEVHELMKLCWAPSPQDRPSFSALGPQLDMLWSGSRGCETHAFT
Procedure: as §1, §2

IC50 (JAK2) | IC50 (JAK1) | IC50 (JAK3) | SMILES
< 500 nM | < 500 nM | < 100 nM | CNC(=O)c1cc(Cl)c(C(=O)c2c[nH]c3c(NC(=O)C4CC4)nccc23)c(Cl)c1 [Compound No. 12, 3,5-Dichloro-4-({7-[(cyclopropylcarbonyl)amino]-1H-pyrrolo[2,3-c]pyridin-3-yl}carbonyl)-N-methylbenzamide]
< 500 nM | < 1000 nM | < 500 nM | CCNC(=O)c1cc(Cl)c(C(=O)c2c[nH]c3c(NC(=O)C4CC4)nccc23)c(Cl)c1 [Compound No. 13, 3,5-Dichloro-4-({7-[(cyclopropylcarbonyl)amino]-1H-pyrrolo[2,3-c]pyridin-3-yl}carbonyl)-N-ethylbenzamide]
< 500 nM | < 1000 nM | < 500 nM | COCCNC(=O)c1cc(Cl)c(C(=O)c2c[nH]c3c(NC(=O)C4CC4)nccc23)c(Cl)c1 [Compound No. 16, 3,5-Dichloro-4-({7-[(cyclopropylcarbonyl)amino]-1H-pyrrolo[2,3-c]pyridin-3-yl}carbonyl)-N-(2-methoxyethyl)benzamide]
< 1000 nM | < 1000 nM | < 500 nM | O=C(NCCOCCO)c1cc(Cl)c(C(=O)c2c[nH]c3c(NC(=O)C4CC4)nccc23)c(Cl)c1 [Compound No. 29, 3,5-Dichloro-4-({7-[(cyclopropylcarbonyl)amino]-1H-pyrrolo[2,3-c]pyridin-3-yl}carbonyl)-N-[2-(2-hydroxyethoxy)ethyl]benzamide]
< 500 nM | < 500 nM | < 500 nM | O=C(NCCCO)c1cc(Cl)c(C(=O)c2c[nH]c3c(NC(=O)C4CC4)nccc23)c(Cl)c1 [Compound No. 30, 3,5-Dichloro-4-({7-[(cyclopropylcarbonyl)amino]-1H-pyrrolo[2,3-c]pyridin-3-yl}carbonyl)-N-(3-hydroxypropyl)benzamide]
< 500 nM | < 500 nM | < 50 nM | O=C(NCC(O)CO)c1cc(Cl)c(C(=O)c2c[nH]c3c(NC(=O)C4CC4)nccc23)c(Cl)c1 (stereo not drawn) [Compound No. 32, 3,5-Dichloro-4-({7-[(cyclopropylcarbonyl)amino]-1H-pyrrolo[2,3-c]pyridin-3-yl}carbonyl)-N-(2,3-dihydroxypropyl)benzamide]
< 100 nM | < 100 nM | < 100 nM | CN(C)CCNC(=O)c1cc(Cl)c(C(=O)c2c[nH]c3c(NC(=O)C4CC4)nccc23)c(Cl)c1 [Compound No. 33, 3,5-Dichloro-4-({7-[(cyclopropylcarbonyl)amino]-1H-pyrrolo[2,3-c]pyridin-3-yl}carbonyl)-N-[2-(dimethylamino)ethyl]benzamide]
< 500 nM | < 500 nM | < 500 nM | COC(=O)CNC(=O)c1cc(Cl)c(C(=O)c2c[nH]c3c(NC(=O)C4CC4)nccc23)c(Cl)c1 [Compound No. 35, Methyl N-[3,5-dichloro-4-({7-[(cyclopropylcarbonyl)amino]-1H-pyrrolo[2,3-c]pyridin-3-yl}carbonyl)benzoyl]glycinate]
< 100 nM | < 500 nM | < 50 nM | O=C(O)CNC(=O)c1cc(Cl)c(C(=O)c2c[nH]c3c(NC(=O)C4CC4)nccc23)c(Cl)c1 [Compound No. 36, N-[3,5-Dichloro-4-({7-[(cyclopropylcarbonyl)amino]-1H-pyrrolo[2,3-c]pyridin-3-yl}carbonyl)benzoyl]glycine]

Continued, compound first:

SMILES | IC50 (JAK2) | IC50 (JAK1) | IC50 (JAK3)
Nc1cc(Cl)c(C(=O)c2c[nH]c3cnccc23)c(Cl)c1 [Compound No. 3, (4-Amino-2,6-dichlorophenyl)(1H-pyrrolo[2,3-c]pyridin-3-yl)methanone] | < 500 nM | < 1000 nM | < 1000 nM
O=C(c1c(Cl)cccc1Cl)c1c[nH]c2c(NC(=O)C3CC3)nccc12 [Compound No. 5, N-[3-(2,6-Dichlorobenzoyl)-1H-pyrrolo[2,3-c]pyridin-7-yl]cyclopropanecarboxamide] | < 500 nM | < 500 nM | < 500 nM
N#Cc1cc(Cl)c(C(=O)c2c[nH]c3cnccc23)c(Cl)c1 [Compound No. 6, 3,5-Dichloro-4-(1H-pyrrolo[2,3-c]pyridin-3-ylcarbonyl)benzonitrile] | < 500 nM | < 500 nM | < 500 nM
O=C(c1c(F)cccc1Cl)c1c[nH]c2c(NC(=O)C3CC3)nccc12 [Compound No. 11, N-[3-(2-Chloro-6-fluorobenzoyl)-1H-pyrrolo[2,3-c]pyridin-7-yl]cyclopropanecarboxamide] | < 100 nM | < 500 nM | < 100 nM
O=C(c1c(Cl)cccc1Cl)c1c[nH]c2cnc(NC(=O)C3CC3)cc12 [Compound No. 18, N-[3-(2,6-Dichlorobenzoyl)-1H-pyrrolo[2,3-c]pyridin-5-yl]cyclopropanecarboxamide] | < 100 nM | < 1000 nM | < 1000 nM
O=C(c1c(F)cccc1Cl)c1c[nH]c2cnc(NC(=O)C3CC3)cc12 [Compound No. 19, N-[3-(2-Chloro-6-fluorobenzoyl)-1H-pyrrolo[2,3-c]pyridin-5-yl]cyclopropanecarboxamide] | < 50 nM | < 500 nM | < 500 nM
O=C(c1c(Cl)cc(Br)cc1Cl)c1c[nH]c2c(NC(=O)C3CC3)nccc12 [Compound No. 22, N-[3-(4-Bromo-2,6-dichlorobenzoyl)-1H-pyrrolo[2,3-c]pyridin-7-yl]cyclopropanecarboxamide] | < 1000 nM | < 500 nM | < 500 nM
Cc1noc(C)c1-c1cc(Cl)c(C(=O)c2c[nH]c3c(NC(=O)C4CC4)nccc23)c(Cl)c1 [Compound No. 23, N-{3-[2,6-Dichloro-4-(3,5-dimethyl-1,2-oxazol-4-yl)benzoyl]-1H-pyrrolo[2,3-c]pyridin-7-yl}cyclopropanecarboxamide] | < 500 nM | < 1000 nM | < 500 nM
Nc1cc(Cl)c(C(=O)c2c[nH]c3c(NC(=O)C4CC4)nccc23)c(Cl)c1 [Compound No. 26, N-[3-(4-Amino-2,6-dichlorobenzoyl)-1H-pyrrolo[2,3-c]pyridin-7-yl]cyclopropanecarboxamide] | < 500 nM | < 500 nM | < 100 nM
CC(=O)Nc1cc(Cl)c(C(=O)c2c[nH]c3c(NC(=O)C4CC4)nccc23)c(Cl)c1 [Compound No. 27, N-{3-[4-(Acetylamino)-2,6-dichlorobenzoyl]-1H-pyrrolo[2,3-c]pyridin-7-yl}cyclopropanecarboxamide] | < 500 nM | < 1000 nM | < 100 nM
O=C(NCCCN1CCOCC1)c1cc(Cl)c(C(=O)c2c[nH]c3c(NC(=O)C4CC4)nccc23)c(Cl)c1 [Compound No. 31, 3,5-Dichloro-4-({7-[(cyclopropylcarbonyl)amino]-1H-pyrrolo[2,3-c]pyridin-3-yl}carbonyl)-N-[3-(morpholin-4-yl)propyl]benzamide] | < 1000 nM | < 500 nM | < 500 nM
O=C(NCCN1CCCCC1)c1cc(Cl)c(C(=O)c2c[nH]c3c(NC(=O)C4CC4)nccc23)c(Cl)c1 [Compound No. 34, 3,5-Dichloro-4-({7-[(cyclopropylcarbonyl)amino]-1H-pyrrolo[2,3-c]pyridin-3-yl}carbonyl)-N[2-(piperidin-1-yl)ethyl]benzamide] | < 500 nM | < 500 nM | < 500 nM
N#Cc1cc(Cl)c(C(=O)c2c[nH]c3c(NC(=O)C4CC4)nccc23)c(Cl)c1 [Compound No. 39, N-[3-(2,6-Dichloro-4-cyanobenzoyl)-1H-pyrrolo[2,3-c]pyridin-7-yl]cyclopropanecarboxamide] | < 50 nM | < 500 nM | < 50 nM
CC(=O)Nc1nccc2c(C(=O)c3c(Cl)cc(C(=O)NCCN4CCCCC4)cc3Cl)c[nH]c12 [Compound No. 42, 4-{[7-(Acetylamino)-1H-pyrrolo[2,3-c]pyridin-3-yl]carbonyl}-3,5-dichloro-N-[2-(piperidin-1-yl)ethyl]benzamide] | < 1000 nM | < 1000 nM | < 1000 nM
